Values joined by “and” are separate entries in the source; they are usually repeats but may differ in a detail not shown here. Equal entries are not always repeated. Where two headings read alike, the source gives them in different places.
Key:
Assay in all cases: Inside-out patch-clamp inhibition of CFTR current by Inh-172
Assay type in all cases: cell-based
[1] = biological target: T1, pig WT-CFTR (Sus scrofa, UniProt Q6PQZ2)
T1 construct: expressed in transfected cells; host or cells: CHO cells, pcDNA plasmid
T1 sequence (Q6PQZ2 whole entry): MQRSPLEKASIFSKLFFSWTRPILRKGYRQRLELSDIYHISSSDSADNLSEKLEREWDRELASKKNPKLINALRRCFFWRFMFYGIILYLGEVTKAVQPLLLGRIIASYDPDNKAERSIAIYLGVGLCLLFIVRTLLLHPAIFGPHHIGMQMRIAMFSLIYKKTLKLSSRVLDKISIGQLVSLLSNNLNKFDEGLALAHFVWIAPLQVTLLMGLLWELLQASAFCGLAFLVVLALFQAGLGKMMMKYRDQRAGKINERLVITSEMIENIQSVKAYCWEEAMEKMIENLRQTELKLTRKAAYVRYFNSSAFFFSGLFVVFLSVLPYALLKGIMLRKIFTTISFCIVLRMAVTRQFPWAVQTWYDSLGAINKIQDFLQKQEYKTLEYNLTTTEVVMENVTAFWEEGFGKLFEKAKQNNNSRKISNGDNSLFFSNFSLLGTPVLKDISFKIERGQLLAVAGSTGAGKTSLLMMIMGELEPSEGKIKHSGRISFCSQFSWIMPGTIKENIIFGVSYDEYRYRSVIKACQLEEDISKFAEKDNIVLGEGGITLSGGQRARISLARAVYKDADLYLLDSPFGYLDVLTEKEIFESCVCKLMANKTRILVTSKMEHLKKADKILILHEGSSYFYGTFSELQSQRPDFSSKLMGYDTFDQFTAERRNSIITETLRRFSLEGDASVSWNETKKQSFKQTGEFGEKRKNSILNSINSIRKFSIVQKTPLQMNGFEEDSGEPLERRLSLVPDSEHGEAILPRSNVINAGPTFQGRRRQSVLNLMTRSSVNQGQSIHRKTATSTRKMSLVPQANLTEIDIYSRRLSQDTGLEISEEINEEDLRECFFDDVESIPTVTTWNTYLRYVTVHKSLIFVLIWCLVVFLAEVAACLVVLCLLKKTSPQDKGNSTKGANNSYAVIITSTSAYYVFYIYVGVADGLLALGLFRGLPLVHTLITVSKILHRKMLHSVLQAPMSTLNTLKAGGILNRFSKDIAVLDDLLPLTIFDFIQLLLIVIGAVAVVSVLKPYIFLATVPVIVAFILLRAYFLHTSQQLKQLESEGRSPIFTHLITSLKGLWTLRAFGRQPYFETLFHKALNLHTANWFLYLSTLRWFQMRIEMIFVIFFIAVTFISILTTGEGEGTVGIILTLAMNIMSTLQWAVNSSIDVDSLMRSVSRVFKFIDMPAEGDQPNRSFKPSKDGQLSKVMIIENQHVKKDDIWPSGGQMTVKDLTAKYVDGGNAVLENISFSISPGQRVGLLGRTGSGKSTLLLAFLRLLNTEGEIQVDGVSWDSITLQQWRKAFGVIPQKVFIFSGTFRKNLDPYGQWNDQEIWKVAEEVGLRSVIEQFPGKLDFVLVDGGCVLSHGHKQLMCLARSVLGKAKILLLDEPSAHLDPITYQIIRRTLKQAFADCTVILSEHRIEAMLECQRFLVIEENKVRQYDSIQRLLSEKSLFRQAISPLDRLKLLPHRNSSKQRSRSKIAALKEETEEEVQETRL
Protocol: (§1) CHO cells were grown at 37 °C in Dulbecco’s modified Eagle’s medium supplemented with 10% (vol/vol) fetal bovine serum (Sigma-Aldrich, St. Louis, MO). pcDNA plasmids carrying the desired CFTR construct were transfected to CHO cells using PolyFect transfection reagent (Qiagen, Hilden, Germany) together with green fluorescence protein (GFP) cDNA (pEGFP-C3, Takara Bio, Shiga, Japan) that helps identify expression of CFTR. Cells were first incubated with the transfection reagents at 37 °C for 6-12 hours on sterile glass chips in 35-mm tissue culture dishes before transferred to 27 °C for incubation for 2–7 days. Primers for mutations were ordered from Integrated DNA Technologies (Coralville, IA) and were summarized in Supplementary Data. All CFTR mutants were prepared with QuikChange XL kit (Agilent, Santa Clara, CA) and sequenced at the DNA Core facility at University of Missouri-Columbia.
(§2) Patch-clamp pipettes were made from borosilicate capillary glass using a two-stage vertical puller (PP-81; Narishige, Amityville, NY). The pipette tips were fire polished with a homemade microforge to yield a pipette resistance of 2–5 MΩ when filled with a pipette solution containing (in mM): 140 NMDG-Cl (N-methyl-D-glucamine-chloride), 5 CaCl2, 2 MgCl2, and 10 HEPES, pH 7.4. For recordings, transfected cells on glass chips were transferred into a continuously perfused chamber on the stage of an inverted microscope (IX51; Olympus, Tokyo, Japan) with the perfusing solution containing (in mM): 150 NMDG-Cl, 2 MgCl2, 10 EGTA, 8 Tris, and 10 HEPES, pH 7.4. The membrane patch was excised to an inside-out configuration with a seal resistance >40 GΩ. CFTR currents were recorded with an amplifier (EPC9; HEKA, Holliston, MA), filtered through an eight-pole Bessel filter (LPF-8; Warner Instruments, Hamden, CT) at 100 Hz and digitized to a computer at a sampling rate of 500 Hz with Pulse software (version 8.53; HEKA). The membrane potential was held at −30 mV. Solution exchange was achieved by a fast solution change system (SF-77B; Warner Instruments). Inh-172 was obtained from the CFTR Chemical Compound Program supported by the Cystic Fibrosis Foundation. All experiments were performed at room temperature.
(§3) The steady state mean currents were measured in the Igor Pro software (version 8.0; WaveMetrics). The mean baseline currents were subtracted from the steady state mean currents before the data were used to determine the degrees of inhibition. The degrees of inhibition by CFTR inhibitor 172 were calculated based on the equation:1 %inhibition=1−IInh−172/I0X100% where I0 and Iinh−172 represent uninhibited and inhibited currents, respectively. The IC50 and Hill coefficients were obtained by fitting percent inhibition as a function of [Inh-172] with the Hill equation:2 %inhibition=base+(max−base)/1+xhalf/x^rate where max and base represent the […] percent inhibition by Inh-172, x represents the concentration of Inh-172, and the rate is the Hill coefficient. The estimated IC50 (xhalf) and Hill coefficients are listed in Table 1 as mean ± standard deviation. Each patch-clamp recording was made from a separate cell.

[2] = biological target: T2, p-hTMD2-p-CFTR (pig CFTR with human CFTR's TMD2) (Sus scrofa, UniProt Q6PQZ2, A1172T/A789T/A900R/A913S/C878S/C883W/D1186N/D1223E/D816E/DEL1175-1175/F1181T/G899S/G926T/H1036Q/I1057V/I806L/K1013Q/K886G/K887N/K898H/L1018V/L1029M/L930M/L932F/M795V/N1178T/P890L/Q1176K/Q1198S/R1179K/R831K/R951H/S1010A/S1184Y/S783N/S889P/T1129R/T790A/T843A/V1006I/V1222T/V1228I/V798A/V838M/V854I/V870I/V983I)
T2 construct: expressed in transfected cells; host or cells: CHO cells, pcDNA plasmid
T2 sequence (Q6PQZ2 with tags, fused parts or gaps with the stated changes): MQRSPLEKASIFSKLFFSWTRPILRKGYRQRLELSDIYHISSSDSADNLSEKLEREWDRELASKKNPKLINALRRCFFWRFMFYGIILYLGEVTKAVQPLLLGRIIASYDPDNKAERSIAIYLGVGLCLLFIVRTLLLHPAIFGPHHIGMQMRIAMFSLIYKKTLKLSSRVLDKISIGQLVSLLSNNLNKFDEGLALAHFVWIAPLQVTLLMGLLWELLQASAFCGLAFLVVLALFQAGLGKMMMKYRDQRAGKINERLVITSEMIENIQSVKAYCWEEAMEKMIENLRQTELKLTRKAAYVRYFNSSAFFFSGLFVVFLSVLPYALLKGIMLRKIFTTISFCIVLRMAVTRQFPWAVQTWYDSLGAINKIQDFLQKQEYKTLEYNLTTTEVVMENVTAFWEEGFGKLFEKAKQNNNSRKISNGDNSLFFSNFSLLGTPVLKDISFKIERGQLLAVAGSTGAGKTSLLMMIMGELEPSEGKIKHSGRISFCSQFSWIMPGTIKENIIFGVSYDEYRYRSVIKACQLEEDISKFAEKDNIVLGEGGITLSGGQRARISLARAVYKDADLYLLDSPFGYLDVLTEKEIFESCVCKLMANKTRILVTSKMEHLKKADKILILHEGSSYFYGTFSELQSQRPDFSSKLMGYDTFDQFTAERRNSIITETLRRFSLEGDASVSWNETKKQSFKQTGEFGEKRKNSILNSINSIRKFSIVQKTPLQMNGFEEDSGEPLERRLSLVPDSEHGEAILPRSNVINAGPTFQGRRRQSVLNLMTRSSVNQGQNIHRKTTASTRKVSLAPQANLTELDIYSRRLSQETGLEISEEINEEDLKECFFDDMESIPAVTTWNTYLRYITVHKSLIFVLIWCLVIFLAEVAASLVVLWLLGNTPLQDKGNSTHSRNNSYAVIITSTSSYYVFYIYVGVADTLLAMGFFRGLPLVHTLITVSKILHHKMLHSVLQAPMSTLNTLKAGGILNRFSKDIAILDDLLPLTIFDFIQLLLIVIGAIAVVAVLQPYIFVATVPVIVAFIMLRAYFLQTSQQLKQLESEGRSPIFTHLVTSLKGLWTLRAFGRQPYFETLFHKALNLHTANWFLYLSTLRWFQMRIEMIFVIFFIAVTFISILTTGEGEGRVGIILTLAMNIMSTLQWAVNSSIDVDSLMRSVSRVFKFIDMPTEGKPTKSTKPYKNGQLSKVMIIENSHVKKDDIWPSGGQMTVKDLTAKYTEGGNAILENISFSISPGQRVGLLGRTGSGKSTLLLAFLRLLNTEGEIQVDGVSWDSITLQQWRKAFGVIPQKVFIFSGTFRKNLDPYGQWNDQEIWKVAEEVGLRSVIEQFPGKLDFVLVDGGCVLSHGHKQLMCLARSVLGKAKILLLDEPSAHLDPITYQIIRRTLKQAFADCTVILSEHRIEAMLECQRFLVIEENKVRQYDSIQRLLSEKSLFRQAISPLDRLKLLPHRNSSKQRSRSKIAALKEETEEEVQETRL
Protocol: as §1, §2, §3

[3] = biological target: T3, M348K-CFTR (Homo sapiens, UniProt P13569, M348K)
T3 construct: expressed in transfected cells; host or cells: CHO cells, pcDNA plasmid
T3 sequence (P13569 whole entry M348K): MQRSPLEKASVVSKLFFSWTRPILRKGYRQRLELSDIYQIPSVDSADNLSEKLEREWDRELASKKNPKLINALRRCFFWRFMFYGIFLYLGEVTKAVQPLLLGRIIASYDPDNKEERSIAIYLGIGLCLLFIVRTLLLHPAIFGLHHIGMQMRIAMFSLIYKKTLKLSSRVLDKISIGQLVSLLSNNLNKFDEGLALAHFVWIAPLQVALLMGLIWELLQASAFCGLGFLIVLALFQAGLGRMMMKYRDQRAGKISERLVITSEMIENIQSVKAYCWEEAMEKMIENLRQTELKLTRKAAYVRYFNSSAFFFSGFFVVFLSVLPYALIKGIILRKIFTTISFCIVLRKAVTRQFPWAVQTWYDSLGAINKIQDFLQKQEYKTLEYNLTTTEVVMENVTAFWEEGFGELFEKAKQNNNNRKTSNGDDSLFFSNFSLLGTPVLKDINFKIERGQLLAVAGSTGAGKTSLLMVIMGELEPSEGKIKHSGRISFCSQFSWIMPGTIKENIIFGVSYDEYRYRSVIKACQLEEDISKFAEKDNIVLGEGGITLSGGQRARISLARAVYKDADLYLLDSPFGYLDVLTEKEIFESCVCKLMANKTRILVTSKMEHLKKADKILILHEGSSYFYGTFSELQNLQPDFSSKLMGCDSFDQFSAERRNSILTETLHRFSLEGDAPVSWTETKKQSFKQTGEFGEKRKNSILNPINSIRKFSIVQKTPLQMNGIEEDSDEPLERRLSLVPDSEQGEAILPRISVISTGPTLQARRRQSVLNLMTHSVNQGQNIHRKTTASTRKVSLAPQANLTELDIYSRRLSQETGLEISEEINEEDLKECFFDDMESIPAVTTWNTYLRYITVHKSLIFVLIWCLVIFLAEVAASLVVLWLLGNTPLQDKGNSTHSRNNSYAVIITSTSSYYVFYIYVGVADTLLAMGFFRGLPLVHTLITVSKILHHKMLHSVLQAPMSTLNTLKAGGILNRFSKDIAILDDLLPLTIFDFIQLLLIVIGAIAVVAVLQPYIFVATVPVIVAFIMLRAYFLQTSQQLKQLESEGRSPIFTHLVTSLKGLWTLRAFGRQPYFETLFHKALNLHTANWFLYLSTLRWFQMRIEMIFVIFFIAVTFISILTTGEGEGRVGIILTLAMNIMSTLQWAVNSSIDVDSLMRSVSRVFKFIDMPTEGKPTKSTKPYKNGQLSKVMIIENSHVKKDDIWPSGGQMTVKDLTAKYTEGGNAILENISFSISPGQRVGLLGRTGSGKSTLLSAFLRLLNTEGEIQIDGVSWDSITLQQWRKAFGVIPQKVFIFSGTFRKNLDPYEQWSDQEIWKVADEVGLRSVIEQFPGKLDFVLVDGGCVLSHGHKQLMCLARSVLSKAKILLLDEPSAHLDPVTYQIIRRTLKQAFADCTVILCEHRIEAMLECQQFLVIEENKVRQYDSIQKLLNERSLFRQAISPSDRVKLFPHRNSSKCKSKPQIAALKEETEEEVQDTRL
Protocol: as §1, §2, §3

[4] = biological target: T4, W1145L-CFTR (Homo sapiens, UniProt P13569, W1145L)
T4 construct: expressed in transfected cells; host or cells: CHO cells, pcDNA plasmid
T4 sequence (P13569 whole entry W1145L): as the sequence (P13569 whole entry M348K) above, with K348M, W1145L counted along it
Protocol: as §1, §2, §3

[5] = 50 nM Inh-172, read-out: percent inhibition of current, Mean
[6] = 100 nM Inh-172, read-out: percent inhibition of current, Mean
[7] = 500 nM Inh-172, read-out: percent inhibition of current, Mean
[8] = 500 nM Inh-172, read-out: percent inhibition of current, individual cell
[9] = 1000 nM Inh-172, read-out: percent inhibition of current, Mean
[10] = 5000 nM Inh-172, read-out: percent inhibition of current, Mean
[11] = 5000 nM Inh-172, read-out: percent inhibition of current, individual cell
[12] = 10000 nM Inh-172, read-out: percent inhibition of current, Mean
[13] = 10000 nM Inh-172, read-out: percent inhibition of current, individual cell
[14] = 100 nM Inh-172, read-out: percent inhibition of current, individual cell
[15] = 1000 nM Inh-172, read-out: percent inhibition of current, individual cell

O=C(O)c1ccc(/C=C2\SC(=S)N(c3cccc(C(F)(F)F)c3)C2=O)cc1 [Inh-172, CFTRinh-172]
percent inhibition of current, individual cell ([1]; 50 nM Inh-172): 2.0 and 4.0 and 8.0 and 15.0 and 7.0 | inhibition at 0.05 µM [1, 5]: 7.2% | percent inhibition of current, individual cell ([1]; 100 nM Inh-172): 2.0 and 18.0 and 5.0 and 13.0 and 6.0 and 7.0 | inhibition at 0.1 µM [1, 6]: 8.1% | percent inhibition of current, individual cell ([1]; 500 nM Inh-172): 31.0 and 27.0 and 25.0 and 23.0 | inhibition at 0.5 µM [1, 7]: 25.9% | inhibition at 0.5 µM [1, 8]: 22% | percent inhibition of current, individual cell ([1]; 1000 nM Inh-172): 33.0 and 38.0 and 40.0 and 21.0 and 41.0 and 44.0 and 39.0 and 36.0 and 29.0 and 42.0 | inhibition at 1 µM [1, 9]: 36.3% | percent inhibition of current, individual cell ([1]; 5000 nM Inh-172): 62.0 and 70.0 and 59.0 and 77.0 and 72.0 and 79.0 | inhibition at 5 µM [1, 10]: 68.1% | inhibition at 5 µM [1, 11]: 67% | percent inhibition of current, individual cell ([1]; 10000 nM Inh-172): 83.0 and 79.0 and 82.0 and 73.0 and 80.0 and 93.0 | inhibition at 10 µM [1, 12]: 82.7% | inhibition at 10 µM [1, 13]: 89% | Hill Coefficient ([1]; Pig WT): 0.83 ± 0.04 | IC50 ([1]; Pig WT): 1860 ± 120 nM | IC50 of pig WT-CFTR higher than human WT-CFTR ([1]; cho cells inside-out patch): ~ 20 fold | percent inhibition of current, individual cell ([2]; 50 nM Inh-172): 48.0 and 39.0 | inhibition at 0.05 µM [2, 5]: 46.3% | inhibition at 0.05 µM ([2]; 50 nM Inh-172, read-out: percent inhibition of current, individual cell): 52% | percent inhibition of current, individual cell ([2]; 100 nM Inh-172): 60.0 and 64.0 and 67.0 and 62.0 and 55.0 | inhibition at 0.1 µM [2, 6]: 63.6% | inhibition at 0.1 µM [2, 14]: 75% | percent inhibition of current, individual cell ([2]; 500 nM Inh-172): 71.0 and 78.0 and 69.0 and 61.0 | inhibition at 0.5 µM [2, 7]: 72% | inhibition at 0.5 µM [2, 8]: 81% | percent inhibition of current, individual cell ([2]; 1000 nM Inh-172): 84.0 | inhibition at 1 µM [2, 9]: 79.8% | inhibition at 1 µM [2, 15]: 85% | percent inhibition of current, individual cell ([2]; 5000 nM Inh-172): 97.0 and 95.0 | inhibition at 5 µM [2, 10]: 96% | inhibition at 5 µM [2, 11]: 96% | percent inhibition of current, individual cell ([2]; 10000 nM Inh-172): 98.0 and 100.0 and 90.0 and 93.0 and 91.0 | inhibition at 10 µM [2, 12]: 95.6% | inhibition at 10 µM [2, 13]: 99% | Hill Coefficient ([2]; p-hTMD2-p): 0.54 ± 0.08 | IC50 ([2]; p-hTMD2-p): 60 ± 20 nM | IC50 ([2]; pig CFTR with human TMD2, earlier manuscript version, peer review file): 55 nM | percent inhibition of current, individual cell ([3]; 100 nM Inh-172): 10.0 and 17.0 and 1.0 and 23.0 | inhibition at 0.1 µM [3, 6]: 12.8% | percent inhibition of current, individual cell ([3]; 250 nM Inh-172): 31.0 and 36.0 and 35.0 | inhibition at 0.25 µM ([3]; 250 nM Inh-172, read-out: percent inhibition of current, Mean): 35.3% | inhibition at 0.25 µM ([3]; 250 nM Inh-172, read-out: percent inhibition of current, individual cell): 39% | percent inhibition of current, individual cell ([3]; 500 nM Inh-172): 50.0 and 41.0 and 62.0 and 56.0 and 63.0 | inhibition at 0.5 µM [3, 7]: 54.4% | percent inhibition of current, individual cell ([3]; 1000 nM Inh-172): 61.0 and 64.0 and 60.0 | inhibition at 1 µM [3, 9]: 64.2% | inhibition at 1 µM [3, 15]: 68% | percent inhibition of current, individual cell ([3]; 5000 nM Inh-172): 94.0 and 84.0 and 81.0 | inhibition at 5 µM [3, 10]: 86.6% | inhibition at 5 µM [3, 11]: 90% | percent inhibition of current, individual cell ([3]; 10000 nM Inh-172): 89.0 and 83.0 | inhibition at 10 µM [3, 12]: 88% | inhibition at 10 µM [3, 13]: 92% | Hill Coefficient ([3]; M348K): 0.90 ± 0.10 | IC50 ([3]; M348K): 520 ± 60 nM | percent inhibition of current, individual cell ([4]; 100 nM Inh-172): 11 | inhibition at 0.1 µM [4, 6]: 16% | inhibition at 0.1 µM [4, 14]: 21% | percent inhibition of current, individual cell ([4]; 500 nM Inh-172): 42 and 48 | inhibition at 0.5 µM [4, 7]: 44.3% | inhibition at 0.5 µM [4, 8]: 43% | percent inhibition of current, individual cell ([4]; 1000 nM Inh-172): 59 and 67 | inhibition at 1 µM [4, 9]: 62.3% | inhibition at 1 µM [4, 15]: 61% | percent inhibition of current, individual cell ([4]; 5000 nM Inh-172): 83 and 87 and 70 | inhibition at 5 µM [4, 10]: 81.3% | inhibition at 5 µM [4, 11]: 85% | percent inhibition of current, individual cell ([4]; 10000 nM Inh-172): 91 and 83 | inhibition at 10 µM [4, 12]: 89.5% | inhibition at 10 µM [4, 13]: 92% | Hill Coefficient ([4]; W1145L): 0.82 ± 0.07 | IC50 ([4]; W1145L): 640 ± 60 nM

From article PMC11303713, “Allosteric inhibition of CFTR gating by CFTRinh-172 binding in the pore” (Nature Communications, 2024)
